These results are taken from patent US7344704B2, “Use of perfluoroalkyl-containing metal complexes as contrast media in MR-imaging for visualization of intravascular thrombi” (Schering AG, priority 2002, dated 2008).

Format in all cases: physicochemical
Data set [1] is described as follows: Critical micelle formation concentration (CMC) by tensiometry. How it is done:
In aqueous systems, these amphiphilic molecules show the properties that are characteristic of standard surfactants (such as, e.g., sodium dodecylsulfate, SDS). They thus reduce the surface tension of water. By tensiometry, the so-called CMC (critical micelle formation concentration in mol/l) can be determined. In this respect, the surface tension is determined based on the concentration of the substance to be measured. The CMC can be calculated from the plot of the surface tension function (c) that is obtained. The critical micelle formation concentration of the compounds according to the invention must be <10^−3 mol/l, preferably <10^−4 mol/l.
(§1) Both the determination of the CMC and the photon correlation spectroscopy are described in H.-D. Dörfler, “Grenzflächen-und Kolloidchemie [Interface and Colloid Chemistry],” Weinheim, New York, Basel, Cambridge, Tokyo, VSH 1994.

Data set [2] in a line: Hydrodynamic micelle diameter 2 Rh by photon correlation spectroscopy.
From the text: The amphiphilic compounds according to the invention are associated in solution and are present as aggregates. The size (2 Rh) of such aggregates (e.g., micelles, rods, wafers, etc.) can be determined with the aid of […] (PCS).
As a second criterion, the hydrodynamic micelle diameter 2 Rh, which must be >1 nm, is therefore used. In particular, those perfluoroalkyl-containing metal complexes according to the invention whose 2 RH≧3 nm, quite especially preferably >4 nm, are suitable.
as §1

A short description of data set [3]: Proton relaxivity R^1 in plasma (Minispec P 20). Conditions: in plasma (bovine) at 40° C., field strength 0.47 Tesla. How it is done: As a third criterion, the proton-relaxivity in plasma (R^1) at 40° C. and a field strength of 0.47 tesla are used. The relaxivity, which is indicated in [l/mmol·s], is the quantitative measurement for the shortening of relaxation time T^1 of the protons. For the purpose according to the invention, the relaxivity must be as high as possible and >10 l/mmol·s, preferably >13 l/mmol·s, especially preferably >15 l/mmol·s.
Relaxivity R^1 [l/mmol·s] of the MR-contrast media according to the invention was determined with the Minispec P 20 device of the Bruker Company. The measurements were taken at 40° C. and a field strength of 0.47 tesla. Eight measuring points were recorded by each T1-sequence: 180°-TI-90°, inversion recovery. As a medium, bovine plasma of the Kraeber Company was used. The contrast medium concentrations [mmol/l] in the batches were between 0.30 and 1.16.
The measurements were carried out in plasma at 40° C. and a field strength of 0.47 Tesla.

For the compound “Gadolinium complex of 10-{1-carboxy-2-carbonyl-[piperazin-1-yl-4-(perfluorooctylsulfonyl)]}-ethyl-1,4,7-tris(carboxymethyl)-1,4,7,10-tetraazacyclododecane, Sodium salt [MK 29]”, the “CMC (Critical Micelle Formation Concentration)” value (from here on “CMC”) in data set [1] turned out to be 7.6e-05 mol/L. Also, in data set [2], the “2 Rh (Hydrodynamic Micelle Diameter)” value is on record as 4.8 nm. The “R^1 (Relaxivity)” value in data set [3] is given as 17.7 l: mmol · s.

Take `O=C([O-])CN1CCN(CC(=O)[O-])CCN(CC(O)CNC(=O)CNC(=O)CNC(=O)CNC(=O)COCCC(F)(F)C(F)(F)C(F)(F)C(F)(F)C(F)(F)C(F)(F)C(F)(F)C(F)(F)F)CCN(CC(=O)[O-])CC1.[Gd+3]` (stereo not drawn) [MK 30, 1,4,7-Tris(carboxylatomethyl)-1,4,7,10-tetraazacyclododecane-10-{2-hydroxy-3-N-[triglycidyl-N-(2H,2H,4H,4H,5H,5H-3-oxa-perfluorotridecanoyl)]amino}-propyl, gadolinium complex]: the “CMC” value in data set [1] came to 7e-06 mol/L. Besides, the “2 Rh (Hydrodynamic Micelle Diameter)” value in data set [2] was determined as 7.9 nm. Further, the “R^1 (Relaxivity)” value in data set [3] is given as 27.9 l: mmol · s.

For `COCCOCCOCCOCCOCC(=O)NCCCC[C@H](NC(=O)COCCC(F)(F)C(F)(F)C(F)(F)C(F)(F)C(F)(F)C(F)(F)C(F)(F)C(F)(F)F)C(=O)NCC(O)CN1CCN(CC(=O)[O-])CCN(CC(=O)[O-])CCN(CC(=O)[O-])CC1.[Gd+3]` (stereo partly drawn) [MK 28, 6-N-3,6,9,12,15-Pentaoxahexadecanoyl-2-N-2H,2H,4H,4H,5H,5H-3-oxaperfluorotridecanoyl-L-lysine-N-{1,4,7-tris[carboxylatomethyl]-1,4,7,10-tetraazacyclododecane-10-(2-hydroxy-3-yl), gadoliniumcomplex}-amide], in data set [1], the “CMC” value was 8.1e-06 mol/L. For the same compound, the “2 Rh (Hydrodynamic Micelle Diameter)” value in data set [2] is on record as 4.7 nm. For the same compound, in data set [3], the “R^1 (Relaxivity)” value is 27.9 l: mmol · s.

Consider “gadolinium complex of 1,4,7-tris{1,4,7-tris(N-(carboxylatomethyl)-10-[N-1-methyl-3,6-diaza-2,5,8-trioxooctane-1,8-diyl)]-1,4,7,10-tetraazacyclododecane, Gd complex}-10-[N-2H,2H,4H,4H,5H,5H-3-oxa-perfluorotridecanoyl]-1,4,7,10-tetraazacyclododecane [MK 12]”, for which, in data set [1], the “CMC” value was determined as 0.00089 mol/L. Moreover, the “2 Rh (Hydrodynamic Micelle Diameter)” value in data set [2] was 2.2 nm. The “R^1 (Relaxivity)” value in data set [3] was 19.5 l: mmol · s.
